# Reference: patent publication US20100035802A1, “PARTICULAR SHORT-CHAIN PEPTIDE CANCER DRUG AND ITS TREATMENT” (priority 2007, published 2010)
# Legend:
# [1] = tested on: liver cancer cells; test: cell experiments: survival and death rate of cancer cells added with the short-chain peptide; type: cell-based
# Excerpt: The percent of normal cancer cells 1 is equal to the number of normal cancer cells divided by the summation of the number of normal cancer cells, the number of interphase cancer cells and the number of mitotic phase cancer cells. The percent of interphase cancer cells 2 is equal to the number of interphase cancer cells divided by the summation of the number of normal cancer cells, the number of interphase cancer cells and the number of mitotic phase cancer cells. The percent of mitotic phase cancer cells 3 is equal to the number of mitotic phase cancer cells divided by the summation of the number of normal cancer cells, the number of interphase cancer cells and the number of mitotic phase cancer cells. The percent of dead cancer cells 4 is equal to the number of dead cancer cells divided by the summation of the number of normal cancer cells, the number of interphase cancer cells, the number of mitotic phase cancer cells and the number of dead cancer cells.
# In cell experiments, the survival rate of cancer cells added with none of the short-chain peptide is as high as 95%. Apoptosis of cancer cells begins as soon as the short-chain peptide is added to cancer cells; it's obviously found out that after 24 hours, the survival rate of cancer cells is lowered to about 25% and the death rate is raised to about 70%, 35 to 40 times of normal death rate.
# (§1) In Attachment, Photos 1˜3 show the cell cycles of liver cancer cells respectively added and not added with the particular short-chain peptide in cell experiments. Photos 4 and 5 show the growth of cancer cells respectively added and not added with the particular short-chain peptide in animal experiments.
# [2] = tested on: cancer cells; test: animal experiments: growth of cancer cells added with the short-chain peptide; type: in vivo; conditions: after having been added with the short-chain peptide for a certain period of time
# Excerpt: as §1
substance,measurement,setting,value
"RGDLASLQKAAHGHVRKAFKSHVSTLTDLQPYMRQFVAHLQETSPLRD (RGDLASLQKAAHGHVRKAFKSHVSTLTDLQPYMRQFVAHLQETSPLRD) [short-chain peptide, unique short-chained peptide composed of 48 amino acids]",effect on cell cleavage of cancer cells,[1]; cancer cells added with the short-chain peptide,stagnating on the stage of cell cleavage for being further induced to apoptosis to death
same,death rate of cancer cells,"[1]; cell experiments, after 24 hours with the short-chain peptide",about 70%
same,survival rate of cancer cells,"[1]; cell experiments, after 24 hours with the short-chain peptide (without peptide 95%)",about 25%
same,death rate of the liver cancer cells,"[1]; liver cancer cells, after 24-hour culture, repeated experiments",about 70%
same,death of cancer cells in animal experiments (Photo 5),[2],die massively via apoptosis
